The values below come from US12421212B2, “Substituted benzenecarboxamides as IL-17A modulators” (DiCE Alpha, Inc., priority 2019, dated 2025).

The target of the first test is T1, IL-17A/A (Homo sapiens, UniProt Q16552).
T1 construct: purchased Genscript Z03228
T1 sequence (Q16552 24-155): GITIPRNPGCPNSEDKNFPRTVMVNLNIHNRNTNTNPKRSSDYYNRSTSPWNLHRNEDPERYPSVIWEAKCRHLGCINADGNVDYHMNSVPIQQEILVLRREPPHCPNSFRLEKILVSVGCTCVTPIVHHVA
Description: IL-17A/A HEK-Blue Cell Assay. Format: cell-based.
Conditions: not given
The protocol: The HEK-Blue IL-17A reporter cell line (Fisher #NC1408637) was used for cell-based IL-17A/A inhibition assays. Cells were grown and prepared for assays according to the manufacturer's instructions. This cell line consists of HEK 293 cells that were designed to expressed IL-17RA, IL-17RC, and the ActI adapter molecule, the combination of which, when stimulated by IL-17A/A activates a NFκB promoter and drives expression of a recombinant Secreted Alkaline Phosphatase (SEAP) geneprotein. Media from the cells is then added to a development reagent (Quanti-Blue Substrate, Fisher #NC9711613), and read at A630.
Compounds were titrated in DMSO, with a top final compound concentration of 10 uM, 1 uM, or 0.3 uM, and added to the cells immediately before adding IL-17A/A (Genscript #Z03228). The cells, compound, and IL-17A/A were then incubated for 20 hours before media was removed for SEAP analysis. The resulting inhibition curve was then analyzed using Graphpad Prism 7.0, and IC50 values were determined using a 4-parameter nonlinear fit. DMSO was added to a universal final concentration of 0.1% to optimize background.
As for `CCc1nonc1C(=O)N[C@H](C(=O)Nc1ccc([C@H](C)[C@@H](NC(=O)CF)C(=O)N2CCN(C)[C@@H](C)C2)cc1F)[C@H]1CC[C@H](C)CC1` [Compound 510], the IC50 lay within 0.01 to 0.1 µM.

Still in this test, the particulars now being: HEK-Blue IL-17A reporter cell line, SEAP readout at A630, 20 hours incubation with IL-17A/A; top concentration 10 uM, 1 uM or 0.3 uM.
`CCC(=O)N[C@@H](C(=O)N1CCN(C)CC1)[C@@H](C)c1ccc(NC(=O)[C@@H](NC(=O)C(F)(F)C2CCN(CCO)CC2)C2CCCCC2)c(F)c1` [Compound 735]: the “IL-17A/A inhibition (pIC50)” value was “X2a (compounds were evaluated up to 1 uM and did not inhibit activity by >80%, however they showed some activity at 1 uM (less than 80% and more than 20%))”. The same measure, in the same setting: for `CCC(=O)NC(C(=O)N1CCN(Cc2ccccc2)CC1)C(C)c1ccc(NC(=O)[C@@H](NC(=O)c2ccnn2CC)[C@H]2CC[C@H](C)CC2)c(F)c1` (single isomer, unassigned) [Compound 663] the value was “X3b (compounds were evaluated up to 0.3 uM and inhibited activity at 0.3 uM by less than 20%)”; for `CCC(=O)N[C@@H](C(=O)N1CCN(C)CC1)[C@@H](C)c1ccc(NC(=O)C(NC(=O)c2ccnn2CC)C(CC)c2ccc(F)cc2)c(F)c1` (single isomer, unassigned) [Compound 556], “X2a (compounds were evaluated up to 1 uM and did not inhibit activity by >80%, however they showed some activity at 1 uM (less than 80% and more than 20%))”. On the same count and under the same terms, for `CCC(=O)N[C@H](Cc1ccc(NC(=O)[C@@H](NC(=O)C(F)(F)c2ccncc2)C2CCCCC2)c(F)c1)C(=O)N1CCN(C)CC1` [Compound 712] the value was “X2a (compounds were evaluated up to 1 uM and did not inhibit activity by >80%, however they showed some activity at 1 uM (less than 80% and more than 20%))”.

Still in this test, the particulars now being: HEK-Blue IL-17A reporter cell line, SEAP readout at A630, 20 hours incubation with IL-17A/A; top concentration 10 uM, 1 uM or 0.3 uM; read-out: IL-17A/A inhibition (pIC50) (converted).
For `CCC(=O)NC(Cc1ccc(NC(=O)[C@@H](NC(=O)c2ccnn2CC)C2CCCCC2)c(F)c1)C(=O)N1CCN(Cc2cccnc2)CC1` (some centres unmarked) [Compound 652], the IC50 was 0.1 to 10 µM.

For `CCC(=O)N[C@@H](C(=O)N1CCN(C)CC1)[C@@H](C)c1ccc(NC(=O)C(NC(=O)c2ccnn2CC)C(CC)c2ccccc2)c(F)c1` (some centres unmarked) [Compound 293], the IC50 is 0.01 to 0.1 µM. On the same count and under the same terms, for `CCC(=O)N[C@@H](C(=O)N1CCN(C)CC1)[C@@H](C)c1ccc(NC(=O)[C@@H](NC(=O)C(F)(F)c2ccc(OC)nc2)C2CCCCC2)cc1` [Compound 221] the value was 0.01 to 0.1 µM; for `CCC(=O)N[C@@H](C(=O)N1CCN(C)CC1)[C@@H](C)c1ccc(NC(=O)[C@@H](NC(=O)c2ccnn2C2COC2)[C@H]2CC[C@H](C)CC2)c(F)c1` [Compound 545], 0.01 to 0.1 µM; for `COc1ccc(C(F)(F)C(=O)N[C@H](C(=O)Nc2ccc(C[C@@H](NC(=O)c3cnns3)C(=O)N3CCN(C)CC3)cc2F)C2CCCCC2)cn1` [Compound 323], 0.01 to 0.1 µM. Same read-out and setting: for `CCC(=O)N[C@@H](C(=O)N1CCN(C)CC1)[C@@H](C)c1ccc(NC(=O)[C@@H](NC(=O)C(F)(F)c2cccc(C#N)c2)C2CCCCC2)c(F)c1` [Compound 230] the value was less than 0.01 µM; for `CCC(=O)N[C@@H](C(=O)N1CCC(F)(F)CC1)[C@@H](C)c1ccc(NC(=O)[C@@H](NC(=O)c2conc2C(C)(C)N)[C@H]2CC[C@H](C)CC2)c(F)c1` [Compound 534], 0.01 to 0.1 µM; for `CCn1nccc1C(=O)N[C@H](C(=O)Nc1ccc([C@H](C)[C@@H](NC(=O)C(C)C2CC2)C(=O)N2CCN(C)[C@H](C)C2)cc1F)[C@H]1CC[C@H](C)CC1` (some centres unmarked) [Compound 434], less than 0.01 µM. Regarding `COc1cncc(C(F)(F)C(=O)N[C@H](C(=O)Nc2ccc([C@H](C)[C@@H](NC(=O)c3cnns3)C(=O)N3CCN(C)CC3)cc2F)C2CCCCC2)c1` [Compound 309], the IC50 was 0.01 to 0.1 µM. On the same count and under the same terms, for `COc1nonc1C(=O)N[C@H](C(=O)Nc1ccc([C@H](C)[C@@H](NC(=O)c2cnns2)C(=O)N2CCN(C)CC2)cc1F)[C@H]1CC[C@H](C)CC1` [Compound 552] the value was 0.01 to 0.1 µM; for `CCC(=O)N[C@@H](C(=O)N1CCC(CC(=O)O)CC1)[C@@H](C)c1ccc(NC(=O)[C@@H](NC(=O)c2ccnn2CC)[C@H]2CC[C@H](C)CC2)c(F)c1` [Compound 422], 0.01 to 0.1 µM. For `CCC(=O)N[C@@H](C(=O)N1CCN(C)C[C@@H]1C)[C@@H](C)c1ccc(NC(=O)[C@@H](NC(=O)c2nonc2CC)[C@H]2CC[C@H](C)CC2)c(F)c1` [Compound 456], the IC50 is less than 0.01 µM. The same measure, in the same setting: for `CCC(=O)N[C@@H](C(=O)N1CCOCC1)[C@@H](C)c1ccc(NC(=O)[C@@H](NC(=O)C(F)(F)c2cccc(C#N)c2)C2CCCCCC2)c(F)c1` [Compound 349] the value was less than 0.01 µM; for `CCn1nccc1C(=O)N[C@H](C(=O)Nc1ccc([C@H](C)[C@@H](NC(=O)C(C)(F)F)C(=O)N2CCN(C)[C@H](C)C2)cc1F)[C@H]1CC[C@H](C)CC1` [Compound 480], less than 0.01 µM. On the same count and under the same terms, for `CCC(=O)N[C@@H](C(=O)N1CCN(C)CC1)[C@@H](C)c1ccc(NC(=O)[C@@H](NC(=O)C(=O)c2ccc(NS(C)(=O)=O)nc2)C2CCCCCC2)c(F)c1` [Compound 626] the value was 0.1 to 10 µM. Regarding `CCC(=O)N[C@H](Cc1ccc(NC(=O)[C@@H](NC(=O)c2ccnn2CC)C2CCCCC2)c(F)c1)C(=O)N1CCN(C(C)C)CC1` [Compound 651], the IC50 is 0.1 to 10 µM.

For `CCn1nccc1C(=O)N[C@H](C(=O)Nc1ccc([C@H](C)[C@@H](NC(=O)[C@H](C)F)C(=O)N2CCN(C)CC2)cc1F)[C@H]1CC[C@H](C)CC1` [Compound 472], the IC50 was 0.01 to 0.1 µM.

Consider `CCC(=O)N[C@@H](C(=O)N1CCN(C)CC1)[C@@H](C)c1ccc(NC(=O)[C@@H](NC(=O)C(F)(F)c2ccc3[nH]ncc3c2)C2CCCCC2)c(F)c1` [Compound 245], for which the IC50 was 0.01 to 0.1 µM. Same read-out and setting: for `CCC(=O)N[C@@H](C(=O)N1CCOCC1)[C@@H](C)c1ccc(NC(=O)[C@@H](NC(=O)c2ccnn2CC)C2CCCCC2)c(F)c1` [Compound 359] the value was 0.01 to 0.1 µM; for `CCc1nonc1C(=O)N[C@H](C(=O)Nc1ccc([C@H](C)[C@@H](NS(=O)(=O)CC)C(=O)N2CCN(C)CC2)cc1F)[C@H]1CC[C@H](C)CC1` [Compound 518], 0.01 to 0.1 µM.

In the case of `CC(C)n1nccc1C(=O)N[C@H](C(=O)Nc1ccc([C@H](C)[C@@H](NC(=O)c2ccnn2C2CCC2)C(=O)N2CCN(C)CC2)cc1F)[C@H]1CC[C@H](C)CC1` [Compound 398], the IC50 was less than 0.01 µM. Still for that read-out and setting: for `CCC(=O)N[C@@H](C(=O)N1CCN(C)CC1)[C@@H](CC)c1ccc(NC(=O)[C@@H](NC(=O)c2ccnn2CC)C2CCCCCC2)cc1` [Compound 319] the value was 0.01 to 0.1 µM; for `CCn1nccc1C(=O)N[C@H](C(=O)Nc1ccc([C@H](C)[C@@H](NC(=O)c2cccs2)C(=O)N2CCN(C)CC2)cc1F)C1CCCCC1` [Compound 304], 0.01 to 0.1 µM. On the same count and under the same terms, for `CCC(=O)N[C@@H](C(=O)N1CCC(C)(O)CC1)[C@@H](C)c1ccc(NC(=O)[C@@H](NC(=O)c2conc2CC)C2CCCCCC2)c(F)c1` [Compound 357] the value was less than 0.01 µM; for `CCn1nccc1C(=O)N[C@H](C(=O)Nc1ccc([C@H](C)[C@@H](NC(=O)NC2CC2)C(=O)N2CCN(C)CC2)cc1)C1CCCCC1` [Compound 402], 0.01 to 0.1 µM; for `CCC(=O)N[C@@H](C(=O)N1C[C@H](C)N(C(=O)CC)[C@@H](C)C1)[C@@H](C)c1ccc(NC(=O)[C@@H](NC(=O)c2nonc2CC)[C@H]2CC[C@H](C)CC2)c(F)c1` [Compound 448], less than 0.01 µM. In the case of `CCC(=O)N[C@@H](C(=O)N1CCN(C)CC1)[C@@H](C)c1ccc(NC(=O)[C@@H](NC(=O)c2csc3ccccc23)C2CCCCC2)c(F)c1` [Compound 248], the IC50 is 0.01 to 0.1 µM.
